Results published in ChEMBL document CHEMBL1134818, “A designed antagonist of the thyroid hormone receptor” (Bioorg Med Chem Lett, 2001).

What was measured:
[1] = target: T1, Thyroid hormone receptor alpha (Homo sapiens, UniProt P10827); assay: Binding affinity towards thyroid hormone receptor (hTR alpha 1)
T1 sequence (P10827 whole entry): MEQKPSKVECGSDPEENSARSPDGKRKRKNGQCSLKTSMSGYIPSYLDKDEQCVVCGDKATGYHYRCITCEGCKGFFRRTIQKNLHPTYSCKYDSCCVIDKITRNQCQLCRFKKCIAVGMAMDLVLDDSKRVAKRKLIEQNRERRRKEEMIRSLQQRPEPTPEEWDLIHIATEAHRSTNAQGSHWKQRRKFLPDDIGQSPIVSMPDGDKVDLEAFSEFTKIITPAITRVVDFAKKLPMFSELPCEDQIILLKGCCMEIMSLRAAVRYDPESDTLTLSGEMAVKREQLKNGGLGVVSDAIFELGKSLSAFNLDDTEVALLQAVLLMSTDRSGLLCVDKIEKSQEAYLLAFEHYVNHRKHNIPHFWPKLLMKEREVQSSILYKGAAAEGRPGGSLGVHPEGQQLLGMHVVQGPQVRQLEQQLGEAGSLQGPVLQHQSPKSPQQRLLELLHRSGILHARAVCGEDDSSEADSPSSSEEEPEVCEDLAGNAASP

[2] = target: T2, Thyroid hormone receptor beta (Homo sapiens, UniProt P10828); assay: Binding affinity towards thyroid hormone receptor (hTR beta 1)
T2 sequence (P10828 whole entry): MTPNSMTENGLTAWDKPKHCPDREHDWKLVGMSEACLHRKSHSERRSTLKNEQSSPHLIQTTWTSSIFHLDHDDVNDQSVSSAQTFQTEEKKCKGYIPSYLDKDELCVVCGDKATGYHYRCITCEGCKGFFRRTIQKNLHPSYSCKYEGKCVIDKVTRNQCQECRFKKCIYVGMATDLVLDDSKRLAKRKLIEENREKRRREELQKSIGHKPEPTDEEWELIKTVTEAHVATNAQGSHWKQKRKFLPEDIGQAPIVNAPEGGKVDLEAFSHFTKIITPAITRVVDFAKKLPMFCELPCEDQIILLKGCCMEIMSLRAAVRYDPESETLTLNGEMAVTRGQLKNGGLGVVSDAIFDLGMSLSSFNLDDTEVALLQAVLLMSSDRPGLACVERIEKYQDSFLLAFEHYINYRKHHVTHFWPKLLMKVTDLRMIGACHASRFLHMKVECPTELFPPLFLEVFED

SMILES | Kd [1] | Kd [2]
COc1ccc(C(c2ccc(O)c(C(C)C)c2)c2c(C)cc(OCC(=O)O)cc2C)c(OC)c1 (stereo not given) | 1.4 µM | 4.2 µM
C=CCC(c1ccc(O)c(C(C)C)c1)c1c(C)cc(OCC(=O)O)cc1C (stereo not given) | 0.43 µM | 0.09 µM
Cc1cc(OCC(=O)O)cc(C)c1C(CCCO)c1ccc(O)c(C(C)C)c1 (stereo not given) | 1.4 µM | 3.6 µM

These reach a lower Kd [1]. Values come first.

Kd [1] | Kd [2] | SMILES
0.24 µM | 0.72 µM | CCCCN(C)C(=O)CCCCCC/C=C\CCC(c1ccc(O)c(C(C)C)c1)c1c(C)cc(OCC(=O)O)cc1C (stereo not given)
0.112 µM | 0.148 µM | CCCCN(C)C(=O)CCCCCCCCCCC(c1ccc(O)c(C(C)C)c1)c1c(C)cc(OCC(=O)O)cc1C (stereo not given)
